The test system of test [1] is antibodies in sera from SARS patients (sera 1a, 1b, 2, 6, 37, 62, London, SARS-yellow, SARS-green). In kind it is binding, human. The arrangement: Binding of serum 6 to linear peptides of protein X1 of SARS-CoV Urbani / Binding of serum 37 to linear peptides of protein X1 of SARS-CoV Urbani / Binding of serum 6 to looped/cyclic peptide (PEPSCAN-ELISA) / Binding of serum 37 to looped/cyclic peptide (PEPSCAN-ELISA) / Binding of serum 37 to looped/cyclic peptides of protein X1 of SARS-CoV Urbani / Binding of serum 6 to linear peptides of protein X2 / Binding of serum 37 to linear peptides of protein X2 / Binding of serum 37 to looped/cyclic peptides of protein X2 of SARS-CoV Urbani / Binding of serum 6 to linear peptides of protein M of SARS-CoV Urbani / Binding of serum 37 to linear peptides of protein M of SARS-CoV Urbani / Binding of serum 6 to looped/cyclic peptides of protein M of SARS-CoV Urbani / Binding of serum 37 to looped/cyclic peptides of protein M of SARS-CoV Urbani / Binding of serum 6 to linear peptides of protein X3 of SARS-CoV Urbani / Binding of serum 37 to linear peptides of protein X3 of SARS-CoV Urbani / Binding of serum 37 to looped/cyclic peptides of protein X3 of SARS-CoV Urbani / Binding of serum 6 to linear peptides of protein X4 of SARS-CoV Urbani / Binding of serum 37 to linear peptides of protein X4 of SARS-CoV Urbani / Binding of serum 37 to looped/cyclic peptides of protein X4 of SARS-CoV Urbani / Binding of serum 6 to linear peptides of protein X5 of SARS-CoV Urbani / Binding of serum 37 to linear peptides of protein X5 of SARS-CoV Urbani / Binding of serum 37 to looped/cyclic peptides of protein X5 of SARS-CoV Urbani / Binding of serum 6 to linear peptides of protein N of SARS-CoV Urbani / Binding of serum 37 to linear peptides of protein N of SARS-CoV Urbani / Binding of serum 6 to linear peptide (PEPSCAN-ELISA) / Binding of serum 1a to looped/cyclic peptides of protein N of SARS-CoV Urbani / Binding of serum 1b to looped/cyclic peptides of protein N of SARS-CoV Urbani / Binding of serum 2 to looped/cyclic peptides of protein N of SARS-CoV Urbani / Binding of serum 6 to looped/cyclic peptides of protein N of SARS-CoV Urbani / Binding of serum 37 to looped/cyclic peptides of protein N of SARS-CoV Urbani / Binding of serum 62 to looped/cyclic peptides of protein N of SARS-CoV Urbani / Binding of serum London to looped/cyclic peptides of protein N of SARS-CoV Urbani / Binding of serum SARS-green to looped/cyclic peptides of protein N of SARS-CoV Urbani: unit not given here.

Test [2] concerns control sera (pooled serum of ten healthy LUMC hospital workers; commercial negative donor pooled serum from the Dutch bloodbank). In kind it is binding, human. The arrangement: Binding of Control serum LUMC to linear peptides / Binding of Control serum Blood-bank to linear peptides / Binding of Control serum LUMC to looped peptides / Binding of Control Serum Blood-Bank to Looped peptides / Binding of Control serum LUMC to linear peptides of the protein M of SARS-CoV Urbani / Binding of Control serum Blood-bank to linear peptides of the protein M of SARS-CoV Urbani / Binding of Control serum LUMC to looped peptides of the protein M of SARS-CoV Urbani / Binding of Control Serum Blood-Bank to Looped peptides of the protein M of SARS-CoV Urbani: unit not given here.

Test [3] has as its system rabbit serum obtained by immunizing a rabbit with the SARS-CoV strain Frankfurt 1. In kind it is binding. The arrangement: Binding of a rabbit serum to linear peptides / Binding of a rabbit serum to looped peptides / Rabbit serum linear peptides / Rabbit serum looped peptides / Binding of a rabbit serum to linear peptides of protein N of SARS-CoV Urbani (Rabbit serum linear peptides) / Binding of a rabbit serum to looped/cyclic peptides of protein N of SARS-CoV Urbani (Rabbit serum looped peptides): unit not given here.

Regarding QIHTIDGSSGVANPA, in test [1], the “Binding of serum 1a to linear peptides of protein X1 of SARS-CoV Urbani” value came out at 0.6, the “Binding of serum 1a to looped/cyclic peptides of protein X1 of SARS-CoV Urbani” value was 0.4, the “Binding of serum 1b to linear peptides of protein X1 of SARS-CoV Urbani” value is listed as 0.5 and the “Binding of serum 1b to looped/cyclic peptides of protein X1 of SARS-CoV Urbani” value is 0.3. Moreover, in test [1], the “Binding of serum 2 to linear peptides of protein X1 of SARS-CoV Urbani” value came to 0.6, the “Binding of serum 2 to looped/cyclic peptides of protein X1 of SARS-CoV Urbani” value is given as 0.4, the “Binding of serum 6 to linear peptides of protein X1 of SARS-CoV Urbani” value was determined as 0.5 and the “Binding of serum 6 to looped/cyclic peptides of protein X1 of SARS-CoV Urbani” value is 0.2. For the same sequence, in test [1], the “Binding of serum 37 to linear peptides of protein X1 of SARS-CoV Urbani” value was 0.7, the “Binding of serum 37 to looped/cyclic peptides of protein X1 of SARS-CoV Urbani” value is 0.4, the “Binding of serum 62 to linear peptides of protein X1 of SARS-CoV Urbani” value turned out to be 0.6 and the “Binding of serum 62 to looped/cyclic peptides of protein X1 of SARS-CoV Urbani” value turned out to be 0.3. In test [1], the “Binding of serum London to linear peptides of protein X1 of SARS-CoV Urbani” value is recorded as 0.3, the “Binding of serum London to looped/cyclic peptides of protein X1 of SARS-CoV Urbani” value was 0.2, the “Binding of serum SARS-green to linear peptides of protein X1 of SARS-CoV Urbani” value was 0.4 and the “Binding of serum SARS-green to looped/cyclic peptides of protein X1 of SARS-CoV Urbani” value turned out to be 0.2. Moreover, in test [1], the “Binding of serum SARS-yellow to linear peptides of protein X1 of SARS-CoV Urbani” value came to 0.3 and the “Binding of serum SARS-yellow to looped/cyclic peptides of protein X1 of SARS-CoV Urbani” value stood at 0.1. In test [2], the “Binding of Control Serum Blood-Bank to Looped peptides” value is 0.2, the “Binding of Control serum Blood-bank to linear peptides” value turned out to be 0.6, the “Binding of Control serum LUMC to linear peptides” value was determined as 0.6 and the “Binding of Control serum LUMC to looped peptides” value turned out to be 0.4. For the same sequence, in test [3], the “Binding of a rabbit serum to linear peptides” value is 0.1 and the “Binding of a rabbit serum to looped peptides” value was 0.3.

On to QIQLSLLKVTAFQHQ, for which, in test [1], the “Binding of serum 1a to linear peptides of protein X2” value is reported as 0.5, the “Binding of serum 1a to looped/cyclic peptides of protein X2 of SARS-CoV Urbani” value is 0.6, the “Binding of serum 1b to linear peptides of protein X2” value is 0.4 and the “Binding of serum 1b to looped/cyclic peptides of protein X2 of SARS-CoV Urbani” value turned out to be 0.5. Besides, in test [1], the “Binding of serum 2 to linear peptides of protein X2” value came to 0.4, the “Binding of serum 2 to looped/cyclic peptides of protein X2 of SARS-CoV Urbani” value worked out at 0.4, the “Binding of serum 6 to linear peptides of protein X2” value is on record as 0.4 and the “Binding of serum 6 to looped/cyclic peptides of protein X2 of SARS-CoV Urbani” value is 0.6. Besides, in test [1], the “Binding of serum 37 to linear peptides of protein X2” value is 0.6, the “Binding of serum 37 to looped/cyclic peptides of protein X2 of SARS-CoV Urbani” value worked out at 0.4, the “Binding of serum 62 to linear peptides of protein X2” value came to 0.3 and the “Binding of serum 62 to looped/cyclic peptides of protein X2 of SARS-CoV Urbani” value was 0.6. In test [1], the “Binding of serum London to linear peptides of protein X2” value came out at 0.3, the “Binding of serum London to looped/cyclic peptides of protein X2 of SARS-CoV Urbani” value is 0.7, the “Binding of serum SARS-green to linear peptides of protein X2” value is listed as 0.2 and the “Binding of serum SARS-green to looped/cyclic peptides of protein X2 of SARS-CoV Urbani” value came out at 0.4. For the same sequence, in test [1], the “Binding of serum SARS-yellow to linear peptides of protein X2” value is listed as 0.4 and the “Binding of serum SARS-yellow to looped/cyclic peptides of protein X2 of SARS-CoV Urbani” value came to 0.6. Moreover, in test [2], the “Binding of Control Serum Blood-Bank to Looped peptides” value is 0.6, the “Binding of Control serum Blood-bank to linear peptides” value is recorded as 0.4, the “Binding of Control serum LUMC to linear peptides” value is 0.7 and the “Binding of Control serum LUMC to looped peptides” value amounted to 0.6. Also, in test [3], the “Binding of a rabbit serum to linear peptides” value was determined as 0.6 and the “Binding of a rabbit serum to looped peptides” value was 0.5.

With QITTDTGIENATFFI, in test [1], the “Binding of serum 1a to linear peptides of protein X1 of SARS-CoV Urbani” value came to 0.7, the “Binding of serum 1a to looped/cyclic peptides of protein X1 of SARS-CoV Urbani” value turned out to be 0.7, the “Binding of serum 1b to linear peptides of protein X1 of SARS-CoV Urbani” value is 0.6 and the “Binding of serum 1b to looped/cyclic peptides of protein X1 of SARS-CoV Urbani” value is 0.7. In test [1], the “Binding of serum 2 to linear peptides of protein X1 of SARS-CoV Urbani” value came to 0.4, the “Binding of serum 2 to looped/cyclic peptides of protein X1 of SARS-CoV Urbani” value was found to be 0.6, the “Binding of serum 6 to linear peptides of protein X1 of SARS-CoV Urbani” value is 0.4 and the “Binding of serum 6 to looped/cyclic peptides of protein X1 of SARS-CoV Urbani” value is 0.5. In addition, in test [1], the “Binding of serum 37 to linear peptides of protein X1 of SARS-CoV Urbani” value was found to be 0.6, the “Binding of serum 37 to looped/cyclic peptides of protein X1 of SARS-CoV Urbani” value turned out to be 1.0, the “Binding of serum 62 to linear peptides of protein X1 of SARS-CoV Urbani” value amounted to 0.4 and the “Binding of serum 62 to looped/cyclic peptides of protein X1 of SARS-CoV Urbani” value was determined as 0.9. Besides, in test [1], the “Binding of serum London to linear peptides of protein X1 of SARS-CoV Urbani” value is on record as 0.3, the “Binding of serum London to looped/cyclic peptides of protein X1 of SARS-CoV Urbani” value was determined as 0.3, the “Binding of serum SARS-green to linear peptides of protein X1 of SARS-CoV Urbani” value stood at 0.3 and the “Binding of serum SARS-green to looped/cyclic peptides of protein X1 of SARS-CoV Urbani” value came out at 0.5. In addition, in test [1], the “Binding of serum SARS-yellow to linear peptides of protein X1 of SARS-CoV Urbani” value is on record as 0.3 and the “Binding of serum SARS-yellow to looped/cyclic peptides of protein X1 of SARS-CoV Urbani” value is listed as 0.5. Besides, in test [2], the “Binding of Control Serum Blood-Bank to Looped peptides” value is on record as 0.5, the “Binding of Control serum Blood-bank to linear peptides” value stood at 0.5, the “Binding of Control serum LUMC to linear peptides” value is on record as 0.6 and the “Binding of Control serum LUMC to looped peptides” value was 0.8. Further, in test [3], the “Binding of a rabbit serum to linear peptides” value is on record as 0.1 and the “Binding of a rabbit serum to looped peptides” value stood at 1.5.

QLESTQITTDTGIEN: in test [1], the “Binding of serum 1a to linear peptides of protein X1 of SARS-CoV Urbani” value is on record as 0.6, the “Binding of serum 1a to looped/cyclic peptides of protein X1 of SARS-CoV Urbani” value came out at 0.4, the “Binding of serum 1b to linear peptides of protein X1 of SARS-CoV Urbani” value is reported as 0.5 and the “Binding of serum 1b to looped/cyclic peptides of protein X1 of SARS-CoV Urbani” value worked out at 0.3. In addition, in test [1], the “Binding of serum 2 to linear peptides of protein X1 of SARS-CoV Urbani” value is 0.4, the “Binding of serum 2 to looped/cyclic peptides of protein X1 of SARS-CoV Urbani” value worked out at 0.3, the “Binding of serum 6 to linear peptides of protein X1 of SARS-CoV Urbani” value worked out at 0.4 and the “Binding of serum 6 to looped/cyclic peptides of protein X1 of SARS-CoV Urbani” value was 0.2. Besides, in test [1], the “Binding of serum 37 to linear peptides of protein X1 of SARS-CoV Urbani” value is on record as 0.5, the “Binding of serum 37 to looped/cyclic peptides of protein X1 of SARS-CoV Urbani” value is on record as 0.5, the “Binding of serum 62 to linear peptides of protein X1 of SARS-CoV Urbani” value is listed as 0.5 and the “Binding of serum 62 to looped/cyclic peptides of protein X1 of SARS-CoV Urbani” value came to 0.5. In test [1], the “Binding of serum London to linear peptides of protein X1 of SARS-CoV Urbani” value was determined as 0.3, the “Binding of serum London to looped/cyclic peptides of protein X1 of SARS-CoV Urbani” value is 0.2, the “Binding of serum SARS-green to linear peptides of protein X1 of SARS-CoV Urbani” value was found to be 0.2 and the “Binding of serum SARS-green to looped/cyclic peptides of protein X1 of SARS-CoV Urbani” value came out at 0.4. Further, in test [1], the “Binding of serum SARS-yellow to linear peptides of protein X1 of SARS-CoV Urbani” value is reported as 0.4 and the “Binding of serum SARS-yellow to looped/cyclic peptides of protein X1 of SARS-CoV Urbani” value is 0.4. In test [2], the “Binding of Control Serum Blood-Bank to Looped peptides” value is recorded as 0.5, the “Binding of Control serum Blood-bank to linear peptides” value is 0.3, the “Binding of Control serum LUMC to linear peptides” value is 0.5 and the “Binding of Control serum LUMC to looped peptides” value came out at 0.5. Moreover, in test [3], the “Binding of a rabbit serum to linear peptides” value was determined as 0.1 and the “Binding of a rabbit serum to looped peptides” value worked out at 0.6.
